Assay results as given in US20240298644A1, “HETEROCYCLIC COMPOUND AND RESISTANT HARMFUL ARTHROPOD- CONTROLLING METHOD FOR COMPOSITION CONTAINING SAME” (SUMITOMO CHEMICAL COMPANY, LIMITED, priority 2021, published 2024).

Assays:
[1] = test system: resistant cotton aphids (Aphis gossypii) (lineages collected in Miyazaki prefecture in 2012, screened with imidacloprid); test: Test method 1: foliar spray on cucumber seedlings infested with resistant cotton aphids; format: in vivo; conditions: Comparative Test Example 1, 500 ppm
Experimental: Test compounds are made to a formulation according to a similar method to that described in the Formulation example 1, and thereto is added water containing 0.03 v/v % of Shindain (registered trademark) to prepare a diluted solution containing a prescribed concentration of the test compound.
Cucumber (cucumber sativus) seedling (on the developmental stage of the second true leaf) is planted in a cup, and approximately 30 resistant cotton aphids (Aphis gossypii) (all stages of life) (lineages collected in Miyazaki prefecture in 2012, screened with imidacloprid). After one day, the diluted solutions are sprayed into the seedling at a ratio of 10 mL/seedling. After 5 days, the number of the surviving insects is examined and the controlling value is calculated by the following equation.
Controlling value (%)−{1−(Cb×Tai)/(Cai×Tb)}×100
wherein the symbols in the equation represent the following descriptions. • Cb: Number of the test insects in untreated group; • Cai: Number of the surviving insects at the time of the examination in untreated group; • Tb: Number of the test insects in treated group; • Tai: Number of the surviving insects at the time of the examination in treated group;
Here the “untreated group” represents a group where a similar treatment procedure to that of treated group except not using the test compound is done.

[2] = Test method 2: spray on rice seedlings, resistant brown planthopper larvae released; format: in vivo; conditions: Nilaparvata lugens, Comparative Test Example 2, 500 ppm
Experimental: Test compounds are made to a formulation according to a similar method to that described in the Formulation example 5, and thereto is added water containing 0.03 v/v % of Shindain (registered trademark) to prepare a diluted solution containing a prescribed concentration of the test compound.
Rice (Oryza sativa) seedling (on the developmental stage of the second true leaf) is planted in a container, and the diluted solutions are sprayed into the seedling in a ratio of 10 mL/seedling. Thereafter, 20 of 3rd instar larvae of resistant brown planthoppers (Nilaparvata lugens) (lineages collected in Kagoshima prefecture in 2018, screened with imidacloprid) are released onto the rice leaves. After 6 days, the number of the surviving insects is examined and the mortality is calculated by the following equation.
Mortality (%)={1−the number of the surviving insects/20}×100

[3] = Test method 5: spray on tomato seedlings carrying larvae of resistant tobacco whiteflies; conditions: Bemisia tabaci

Measured: mortality at 500 ppm

N#Cc1ccc(-c2nc(-c3c(Cl)cncc3Cl)no2)cc1 [Comparative compound 1]
10%: all assays above
